These results are taken from patent US20130005710A1, “AMINOPYRIDINE DERIVATIVE” (priority 2009, published 2013).

In the first assay the test system is rat mixed glial culture. In words: Neurogenesis promoting effect in rat mixed glial culture (neuronal differentiation, beta-tubulin III ELISA). It is filed as cell-based. The note with it: 1 μM compound + rhIGF-1 100 ng/ml, 3 days; control (only rhIGF-1) = 100%; absorbance 450 nm. Here is the method: The hippocampus and the cerebral cortex were excised from each of 3-day-old SD rats. A cell suspension was prepared therefrom using a neuron dispersion kit (Sumitomo Bakelite Co., Ltd., MB-X9901) and inoculated at concentration of 10^5 cells/well to a 96-well plate coated with type I collagen (AGC Techno Glass Co., Ltd., 4860-010). The cells were cultured in a growth medium (D-MEM/F12 containing 10% FBS and PS) at 37° C. for 4 days under 5% CO2 conditions.
After the culture, the medium was replaced by a differentiation medium (D-MEM/F12 containing PS), and rhIGF-1 (R&D Systems, 291-G1-250, final concentration: 100 ng/ml) and 1 μM compound were added thereto. The cells were further cultured for 3 days. The cultured cells were fixed in 4% paraformaldehyde-PBS (Muto Pure Chemicals Co., Ltd.), subjected to membrane permeation treatment with 0.1% Triton X-100 PBS, and blocked with Block Ace solution (DS Pharma Biomedical Co., Ltd., UK-B80). Anti-neuron-specific class III beta-tubulin Antibody (R&D Systems, MAB1195, clone Tuj-1) was diluted 1000-fold and used as a primary antibody. Anti-Mouse Ig, HRP-Linked F(ab′)2 Fragment Sheep (GE Healthcare, NA9310) was diluted 10000-fold and used as a secondary antibody. A plate washer (BIO-TEK INSTRUMENTS ELX405) was used in washing operation. TMB Microwell Peroxidase Substrate System (Kirkegaard & Perry Laboratories, 50-76-00) was used in color reaction, which was performed for 10 minutes and stopped by addition of 1 M phosphoric acid. Absorbance at 450 nm was measured using a plate reader (Labsystems Multiskan BICHROMATIC).
The rate of increase in the absorbance of the compound-supplemented group (compound+rhIGF-1) relative to that of a compound-unsupplemented group (control, only rhIGF-1) as 100% was determined in terms of % control.
A general note: An ELISA detects its analyte on a solid surface through an enzyme-linked reagent.
Regarding `COc1ccc(N2CCOC(c3ccc(C(F)(F)F)cc3)C2)c(-c2ccc(N(C)C)cc2)n1` (single isomer, unassigned) [Example 5, 4-(6-methoxy-3-{2-[4-(trifluoromethyl)phenyl]morpholin-4-yl}pyridin-2-yl)-N,N-dimethylaniline], the “Ratio of absorbance of compound-supplemented group to control (%)” value worked out at 765%.

In the case of `COc1ccc(N2CCOC(c3ccc(C(F)(F)F)cc3)C2)c(-c2ccc(N(C)C)cc2)n1` (single isomer, unassigned) [Example 6, 4-(6-methoxy-3-{2-[4-(trifluoromethyl)phenyl]morpholin-4-yl}pyridin-2-yl)-N,N-dimethylaniline], the “Ratio of absorbance of compound-supplemented group to control (%)” value is listed as 134%.

Staying with this assay, now noted: Rattus norvegicus, 72 h, 1 μM compound + rhIGF-1 100 ng/ml, 3 days; control (only rhIGF-1) = 100%; absorbance 450 nm; read-out: Ratio of absorbance of compound-supplemented group to control (%).
Turning to `COc1ccc(C2(O)CCN(c3ccc(OC)nc3-c3ccc(OC(F)(F)F)cc3)CC2)cc1` [Example 75, 4-(4-methoxyphenyl)-1-{6-methoxy-2-[4-(trifluoromethoxy)phenyl]pyridin-3-yl}piperidin-4-ol], the activity at 1 µM stood at 249%.

On to `COc1ccc(CC2CN(c3ccc(OC)nc3-c3ccc(N(C)C)cc3)CCN2C)cc1` (stereo not shown) [Example 34, 4-{6-methoxy-3-[3-(4-methoxybenzyl)-4-methylpiperazin-1-yl]pyridin-2-yl}-N,N-dimethylaniline], for which the activity at 1 µM is 783%.

Consider `COc1ccc(N2CCCN(c3ccc(OC)nc3-c3ccc(N(C)C)cc3)CC2)c(F)c1` [Example 87, 4-{3-[4-(2-fluoro-4-methoxyphenyl)-1,4-diazepan-1-yl]-6-methoxypyridin-2-yl}-N,N-dimethylaniline], for which the activity at 1 µM is 224%.

In the case of `COc1ccc(N2CCN(c3ccc(Cl)cc3)CC2)c(-c2ccc(N(C)C)cc2)n1` [Example 24, 4-{3-[4-(4-chlorophenyl)piperazin-1-yl]-6-methoxypyridin-2-yl}-N,N-dimethylaniline], the activity at 1 µM turned out to be 462%.

As for `COc1ccc(C2CN(c3ccc(OC)nc3-c3ccc(N(C)C)cc3)CCN2)cc1` (stereo not shown) [Example 14, 4-{6-methoxy-3-[3-(4-methoxyphenyl)piperazin-1-yl]pyridin-2-yl}-N,N-dimethylaniline], the activity at 1 µM came to 260%.

Consider `COc1ccc(N2CCOC(c3cccc(C(F)(F)F)c3)C2)c(-c2ccc(N(C)C)cc2)n1` (stereo not shown) [Example 2, 4-(6-methoxy-3-{2-[3-(trifluoromethyl)phenyl]morpholin-4-yl}pyridin-2-yl)-N,N-dimethylaniline], for which the activity at 1 µM was determined as 448%.

On to `COc1ccc(N2CCN(c3ccc(OC)nc3-c3ccc(OC(F)(F)F)cc3)CC2)cc1` [Example 49, 1-(4-methoxyphenyl)-4-{6-methoxy-2-[4-(trifluoromethoxy)phenyl]pyridin-3-yl}piperazine], for which the activity at 1 µM is 887%.

For `CCOC(=O)N1CCN(c2ccc(OC)nc2-c2ccc(N(C)C)cc2)CC1c1ccc(OC)cc1` (stereo not shown) [Example 13, Ethyl 4-{2-[4-(dimethylamino)phenyl]-6-methoxypyridin-3-yl}-2-(4-methoxyphenyl)piperazine-1-carboxylate], the activity at 1 µM amounted to 285%.

On to `COc1ccc(N2CCN(c3ccc(OC)nc3-c3ccc(N(C)C)cc3)CC(C)C2=O)cc1` (stereo not shown) [Example 118, 1-{2-[4-(dimethylamino)phenyl]-6-methoxypyridin-3-yl}-4-(4-methoxyphenyl)-6-methyl-1,4-diazepan-5-one], for which the activity at 1 µM came to 528%.

Take `CCOc1ccc(-c2nc(OC)ccc2N2CCC(c3ccc(OC)cc3)N(CC)CC2)cc1` (stereo not shown) [Example 108, 1-[2-(4-ethoxyphenyl)-6-methoxypyridin-3-yl]-4-ethyl-5-(4-methoxyphenyl)-1,4-diazepane]: the activity at 1 µM was 773%.

On to `COc1ccc(N2CCN(c3ccc(OC)nc3-c3ccc4c(cnn4C)c3)CC2)cc1` [Example 171, 5-{6-methoxy-3-[4-(4-methoxyphenyl)piperazin-1-yl]pyridin-2-yl}-1-methyl-1H-indazole], for which the activity at 1 µM is 312%.

On to `COc1ccc(N2CCN(c3ccc(OC)nc3-c3ccc(N(C)C)cc3)CCC2=O)cc1` [Example 92, 1-{2-[4-(dimethylamino)phenyl]-6-methoxypyridin-3-yl}-4-(4-methoxyphenyl)-1,4-diazepan-5-one], for which the activity at 1 µM stood at 449%.

Take `COc1ccc(N2CCOC(Cc3cccc(C(F)(F)F)c3)C2)c(-c2ccc(N(C)C)cc2)n1` (stereo not shown) [Example 9, 4-(6-methoxy-3-{2-[3-(trifluoromethyl)benzyl]morpholin-4-yl}pyridin-2-yl)-N,N-dimethylaniline]: the activity at 1 µM came out at 321%.

As for `COc1ccc(N2CCCN(c3ccc(OC)c(OC)c3)CC2)c(-c2ccc(N(C)C)cc2)n1` [Example 89, 4-{3-[4-(3,4-dimethoxyphenyl)-1,4-diazepan-1-yl]-6-methoxypyridin-2-yl}-N,N-dimethylaniline], the activity at 1 µM turned out to be 379%.

With `COc1ccc(C2CN(c3ccc(OC)nc3-c3ccc(N(C)C)cc3)CCO2)cc1` (stereo not shown) [Example 3, 4-{6-methoxy-3-[2-(4-methoxyphenyl)morpholin-4-yl]pyridin-2-yl}-N,N-dimethylaniline], the activity at 1 µM came to 303%.

For the compound `COc1ccc(-c2nc(OC)ccc2N2CCN(c3ccc(OC)cc3)CC2)cc1` [Example 50, 1-[6-methoxy-2-(4-methoxyphenyl)pyridin-3-yl]-4-(4-methoxyphenyl)piperazine], the activity at 1 µM is 546%.

For the compound `COc1ccc(N2CCN(c3ccc(OC)nc3-c3ccc4c(c3)CC(C)(C)O4)CC2)cc1` [Example 60, 1-[2-(2,2-dimethyl-2,3-dihydro-1-benzofuran-5-yl)-6-methoxypyridin-3-yl]-4-(4-methoxyphenyl)piperazine], the activity at 1 µM is 218%.

On to `COc1ccc(N2CCN(c3ccc(OC)nc3-c3ccc(OC(C)C)cc3)CC2)cc1` [Example 52, 1-{6-methoxy-2-[4-(1-methylethoxy)phenyl]pyridin-3-yl}-4-(4-methoxyphenyl)piperazine], for which the activity at 1 µM was 731%.

With `CCOc1ccc(-c2nc(OC)ccc2N2CCN(c3ccc(OC)cc3)CC2)c(F)c1` [Example 113, 1-[2-(4-ethoxy-2-fluorophenyl)-6-methoxypyridin-3-yl]-4-(4-methoxyphenyl)piperazine], the activity at 1 µM stood at 717%.

For the compound `COc1ccc(N2CCN(c3ccc(OC)nc3-c3cnn(C)c3)CC2)cc1` [Example 169, 1-[6-methoxy-2-(1-methyl-1H-pyrazol-4-yl)pyridin-3-yl]-4-(4-methoxyphenyl)piperazine], the activity at 1 µM is 255%.

With `CCOc1ccc(-c2nc(OC)cc(C)c2N2CCN(c3ccc(OC)cc3)CC2)cn1` [Example 168, 6′-ethoxy-6-methoxy-3-[4-(4-methoxyphenyl)piperazin-1-yl]-4-methyl-2,3′-bipyridine], the activity at 1 µM turned out to be 584%.

With `COc1ccc(N2CCN(c3ccc(OC)nc3-c3ccc(C(C)C)cc3)CC2)cc1` [Example 51, 1-{6-methoxy-2-[4-(1-methylethyl)phenyl]pyridin-3-yl}-4-(4-methoxyphenyl)piperazine], the activity at 1 µM was found to be 856%.

For the compound `COc1ccc(N2CCN(c3ccc(OC)nc3-c3ccoc3)CC2)cc1` [Example 160, 1-(2-furan-3-yl-6-methoxypyridin-3-yl)-4-(4-methoxyphenyl)piperazine], the activity at 1 µM was determined as 220%.

For `COc1ccc(N2CCN(c3ccc(OC)nc3-c3ccc(N(C)C)cc3)CCC2C)cc1` (stereo not shown) [Example 134, 4-{6-methoxy-3-[4-(4-methoxyphenyl)-5-methyl-1,4-diazepan-1-yl]pyridin-2-yl}-N,N-dimethylaniline], the activity at 1 µM came to 630%.

With `COc1ccc(N2CCN(c3c(C)cc(OC)nc3-c3ccc(N(C)C)cc3)CC2)cc1` [Example 159, 4-{6-methoxy-3-[4-(4-methoxyphenyl)piperazin-1-yl]-4-methylpyridin-2-yl}-N,N-dimethylaniline], the activity at 1 µM was 611%.

On to `COc1ccc(N2CCN(c3ccc(OC)nc3-c3ccc(N(C)C)cc3)CC(C)(C)C2)cc1` [Example 119, 4-{6-methoxy-3-[4-(4-methoxyphenyl)-6,6-dimethyl-1,4-diazepan-1-yl]pyridin-2-yl}-N,N-dimethylaniline], for which the activity at 1 µM turned out to be 760%.

With `COc1ccc(N2CCCN(c3ccc(OC)nc3-c3ccc(N(C)C)cc3)CC2)cc1` [Example 85, 4-{6-methoxy-3-[4-(4-methoxyphenyl)-1,4-diazepan-1-yl]pyridin-2-yl}-N,N-dimethylaniline], the activity at 1 µM amounted to 385%.

For the compound `COc1ccc(N2CCN(c3ccc(OC)nc3-c3ccc(N4CCOCC4)cc3)CC2)cc1` [Example 174, 4-(4-{6-methoxy-3-[4-(4-methoxyphenyl)piperazin-1-yl]pyridin-2-yl}phenyl)morpholine], the activity at 1 µM was found to be 390%.

As for `COc1ccc(C2CCN(c3ccc(OC)nc3-c3ccc(N(C)C)cc3)CCN2C)cc1` (stereo not shown) [Example 98, 4-{6-methoxy-3-[5-(4-methoxyphenyl)-4-methyl-1,4-diazepan-1-yl]pyridin-2-yl}-N,N-dimethylaniline], the activity at 1 µM turned out to be 397%.
